This assay has as its system PBMC from 30 HC individuals. In words: ex vivo IFNγ ELISPOT with NTM-specific peptides. Format: cell-based, human.
Setting [1] is: response frequency among HC donors, NTM-specific peptides (Table 2).
The mark [2] stands for this setting: total spot forming cells, IFNγ ELISPOT, NTM-specific peptides (Table 2).

Like-named read-outs stand apart in the source and are kept apart here.

For the substance 953 (FEHSVVNMFLFPSGL) [Peptide 953], under setting [1], the “Resp Freq” value stood at 3%. For the same substance, the “Total SFC” value under setting [2] is reported as 25 SFC.
Turning to 323 (MIEMLAMSDLSLMVK) [Peptide 323], the “Resp Freq” value under setting [1] came out at 3%. Besides, under setting [2], the “Total SFC” value is 38 SFC.
GSMLWVAALIGEEIF [Peptide 587]: the Resp Freq was found to be 7% and the “Total SFC” value is reported as 68 SFC. In addition, the “Resp Freq” value under setting [1] is 7%. Also, the “Total SFC” value under setting [2] amounted to 68 SFC.
On to 387 (RGQFWIWAGANIAPI) [Peptide 387], for which the “Resp Freq” value under setting [1] came out at 3%. The “Total SFC” value under setting [2] turned out to be 47 SFC.
For the substance DPLIFFRPRVERLFG [Peptide 720], the Resp Freq came out at 10% and the “Total SFC” value came to 125 SFC. The “Resp Freq” value under setting [1] is given as 10%. For the same substance, the “Total SFC” value under setting [2] was 125 SFC.
As to 883 (EWFARILFSLFSTPS) [Peptide 883], the “Resp Freq” value under setting [1] worked out at 3%. Besides, the “Total SFC” value under setting [2] worked out at 28 SFC.
Turning to 672 (ASGTLLFKLTPWIVV) [Peptide 672], the “Resp Freq” value under setting [1] was 3%. In addition, the “Total SFC” value under setting [2] turned out to be 25 SFC.
Taken in the same sequence, the figures for 421 (DPAFRQVFAAQFLPD) [Peptide 421] were 3% and 40 SFC.
Taken in the same sequence, the figures for 1077 (GFVTEFLQREVQNFL) [Peptide 1077] were 3% and 22 SFC.
The matching figures for 538 (VEVVSAEALQLPLWG) [Peptide 538]: 3% and 30 SFC.
Consider 865 (TPLFMAHYAPFGLLT) [Peptide 865], for which the “Resp Freq” value under setting [1] is on record as 3%. Moreover, the “Total SFC” value under setting [2] is listed as 25 SFC.
718 (LGPTAGLTVASALLV) [Peptide 718]: the “Resp Freq” value under setting [1] is given as 3%. In addition, under setting [2], the “Total SFC” value was found to be 28 SFC.
Consider GRLIGWLAKVLAEHP [Peptide 1258], for which the Resp Freq was determined as 3% and the “Total SFC” value was determined as 60 SFC. In addition, the “Resp Freq” value under setting [1] is on record as 3%. In addition, under setting [2], the “Total SFC” value is on record as 60 SFC.
In the case of 1526 (VATVRAASSLVRAPL) [Peptide 1526], the “Resp Freq” value under setting [1] is listed as 3%. Also, the “Total SFC” value under setting [2] was found to be 27 SFC.
On to 651 (FSWFAAGMVLAELTV) [Peptide 651], for which, under setting [1], the “Resp Freq” value came to 3%. Under setting [2], the “Total SFC” value amounted to 22 SFC.
Turning to 787 (DVDIDQLRSFLADKV) [Peptide 787], the “Resp Freq” value under setting [1] is recorded as 3%. Moreover, the “Total SFC” value under setting [2] is recorded as 38 SFC.
As to HEEIQLLANDFSTML [Peptide 446], the Resp Freq was found to be 3% and the “Total SFC” value is given as 182 SFC. Besides, the “Resp Freq” value under setting [1] is 3%. Also, the “Total SFC” value under setting [2] is recorded as 182 SFC.
On to 1542 (GRVAWNIVTSYLDSA) [Peptide 1542], for which, under setting [1], the “Resp Freq” value was 3%. Further, the “Total SFC” value under setting [2] amounted to 52 SFC.
Taken in the same sequence, the figures for 1001 (KGGLRFHPSVYLGIV) [Peptide 1001] were 3% and 37 SFC.
1196 (MVWRAAAAIELGICD) [Peptide 1196]: under setting [1], the “Resp Freq” value is reported as 3%. Further, the “Total SFC” value under setting [2] came out at 35 SFC.
Take KDVFFYEPIILPEKS [Peptide 752]: the Resp Freq came to 3% and the “Total SFC” value is given as 78 SFC. Further, the “Resp Freq” value under setting [1] was found to be 3%. Under setting [2], the “Total SFC” value is reported as 78 SFC.
With 531 (LDSFQLFPNFVILFW) [Peptide 531], the “Resp Freq” value under setting [1] is 3%. The “Total SFC” value under setting [2] came to 28 SFC.
The matching figures for 1452 (TTPHFLVEGAIIAAY) [Peptide 1452]: 3% and 43 SFC.
Taken in the same sequence, the figures for 417 (GVVAAIIAYNYPNQL) [Peptide 417] were 3% and 28 SFC.
Turning to LMVLFQYGVALHELE [Peptide 7], the Resp Freq came out at 3% and the “Total SFC” value is 138 SFC. Further, under setting [1], the “Resp Freq” value came to 3%. In addition, the “Total SFC” value under setting [2] came out at 138 SFC.
In the case of 1004 (ARQMLRFLSSPLWRA) [Peptide 1004], under setting [1], the “Resp Freq” value came to 3%. Besides, the “Total SFC” value under setting [2] was found to be 27 SFC.
On to 405 (PLVYFIDSMLQVDDL) [Peptide 405], for which, under setting [1], the “Resp Freq” value came out at 3%. Moreover, the “Total SFC” value under setting [2] is 33 SFC.
The matching figures for 1244 (LIFDGVFDRFPTLRI) [Peptide 1244]: 3% and 35 SFC.
For 1393 (ANVRYISGAPQLWVV) [Peptide 1393], under setting [1], the “Resp Freq” value is given as 3%. The “Total SFC” value under setting [2] turned out to be 42 SFC.
Taken in the same sequence, the figures for 1549 (RILQVFTEAYADVER) [Peptide 1549] were 3% and 48 SFC.
Take LMLIWACDLIVAADN [Peptide 1224]: the Resp Freq is on record as 10% and the “Total SFC” value was found to be 97 SFC. Under setting [1], the “Resp Freq” value was 10%. Moreover, the “Total SFC” value under setting [2] is listed as 97 SFC.
As to 397 (ALMNQFISLLKASSL) [Peptide 397], the “Resp Freq” value under setting [1] amounted to 3%. In addition, the “Total SFC” value under setting [2] was 40 SFC.

Source of the values: US10406218B2 (priority 2014, dated 2019).
